Laboratory results: patent publication US12156871B2, “Substituted azacycles as muscarinic M1 receptor positive allosteric modulators” (SUVEN LIFE SCIENCES LIMITED, priority 2017, dated 2024)

What was measured:
[1] = Rodent brain penetration study; format: in vivo, Male Wistar rats; settings: male, Wistar, brain/plasma, po; rat, 3 mg/kg, p.o. @ 1.0 hr; read-out: Single dose Rat Brain Penetration (Cb/Cp)
Description: Male Wistar rats (260±40 grams) were used as experimental animals. Three animals were housed in each cage. Animals were given water and food ad libitum throughout the experiment and maintained on a 12 h light/dark cycle.
Brain penetration was determined in discrete manner in rats. One day prior to dosing day, male Wistar rats were acclimatized and randomly grouped according to their weight. At each time point (0.5, 1 and 2 h) n=3 animals were used.
The test compounds were suitably preformulated and administered orally at (free base equivalent) 3 mg/kg. Blood samples were removed via cardiac puncture by using isoflurane anesthesia. The animals were sacrificed to collect brain tissue. Plasma was separated and brain samples were homogenized and stored frozen at −20° C. until analysis. The concentrations of the test compounds in plasma and brain were determined using LC-MS/MS method.
The test compounds were quantified in plasma and brain homogenate by qualified LC-MS/MS method using suitable extraction technique. The test compounds were quantified in the calibration range of 1-500 ng/mL in plasma and brain homogenate. Study samples were analyzed using calibration samples in the batch and quality control samples spread across the batch.

[2] = Protein binding assay (HT dialysis), dog plasma; format: in vitro ADME; settings: pH 7.4, Mean ± SEM, n = 3, read-out: Fu Plasma (converted)
Description: (§1) Unbound fractions of test compounds in plasma, brain homogenate and liver microsomes were determined using high-throughput dialysis (HT dialysis). Briefly, dialysis membranes were soaked in deionized water for 20 minutes and then in deionized water with 30% ethanol for 15 minutes and finally in phosphate buffer until use. Membranes were rinsed in phosphate buffer before assembling. The membranes were layered between teflon bars of dialysis assembly. Stock solutions of test compound/comparative compound were prepared at 10 mM in DMSO, diluted to 1 mM in acetonitrile and further diluted to 100 μM in mixture of water and acetonitrile (1:1 v/v). Human plasma (pool of 3) was prepared from human blood (3 donors) by centrifuging at 4000 rpm for 10 min at 4° C. Rat and dog blood were obtained on the day of the study and centrifuged to obtain plasma. Rat brains were isolated, cleaned and homogenized with 2 volumes of buffer (3 fold dilution). Liver microsomes were prepared at 0.5 mg/mL in phosphate buffer (100 mM, pH 7.4). The dialysate chambers were loaded with 150 μL of 100 mM phosphate buffer (pH 7.4) in triplicates. The matrix chambers were loaded with 150 μL of the plasma or brain homogenate or microsomal suspension spiked with test compound/comparative compound at a final concentration of 1 μM. 50 μL of the sample was removed from both the chambers at 0 h. The plate was sealed and incubated at 37° C. for 6 h at 100 rpm. After 6 h, 50 μL of the sample was removed from both the chambers. Equal volumes of buffer or human plasma/microsomal suspension were added to the plasma/microsomal and buffer samples respectively to create identical sample matrices for analysis. The samples were precipitated with 150 μL of acetonitrile containing fluoxetine as an internal standard. All the samples were centrifuged at 10000 rpm for 10 minutes at 4° C.

[3] = Protein binding assay (HT dialysis), human plasma; format: in vitro ADME; settings: pH 7.4, Mean ± SEM, n = 3, read-out: Fu Plasma (converted)
Description: as §1

[4] = Protein binding assay (HT dialysis), rat brain homogenate; format: in vitro ADME; settings: pH 7.4, Mean ± SEM, n = 3, read-out: Fu Brain
Description: as §1

[5] = Object recognition task model; format: in vivo, Male Wistar rats; settings: rat, 3 mg/kg, p.o.; for Exploration time mean ± S.E.M, Familiar object / Exploration time mean ± S.E.M, Novel object: choice trial 24 h after T1
Description: The cognition enhancing properties of compounds of this invention were estimated by using this model.
Male Wistar rats (8-10 weeks old) were used as experimental animals. Four animals were housed in each cage. Animals were kept on 20% food deprivation from a day prior to experimentation. Water was provided ad libitum throughout the experiment. Animals were maintained on a 12 h light/dark cycle in temperature and humidity controlled room. The experiment was carried out in an circular made up of acrylic. Rats were habituated to individual arenas for up to 1 h in the absence of any objects on day 1.
One group of 12 rats received vehicle and another set of animals received compound of the formula (I), before the familiar (T1) and choice (T2) trials. During the familiarization phase, (T1), the rats were placed individually in the arena for 3 minutes, in which two identical objects (a1 and a2) were positioned 10 cm from the wall. 24 h after T1, trial for long-term memory test was performed. The same rats were placed in the same arena as they were placed in T1 trial. During the choice phase (T2) rats were allowed to explore the arena for 3 minutes in presence of a copy of familiar object (a3) and one novel object (b). During the T1 and T2 trial, explorations of each object (defined as sniffing, licking, chewing or having moving vibrissae whilst directing the nose towards the object at a distance of less than 1 cm) were recorded using stopwatch. • T1 is the total time spent exploring the familiar objects (a1+a2). • T2 is the total time spent exploring the familiar object and novel object (a3+b).
The object recognition test was performed as described by Ennaceur, A., Delacour, J., 1988, A new one-trial test for neurobiological studies of memory in rats—Behavioural data, Behav. Brain Res., 31, 47-59.

[6] = test system: hippocampal theta oscillations; test: Theta modulation in dorsal hippocampus of anesthetized rats in combination with donepezil; format: in vivo, Male Wistar rats; settings: in combination with donepezil (0.3 mg/kg, i.v.), test compound 1 mg/kg
Description: Male Wistar rats (240-320 g) were anesthetized by intraperitoneal administration of urethane (1.2 to 1.5 g/kg) for implantation of a catheter in the left femoral vein. The animal was placed in a stereotaxic frame for implanting an electrode (stainless steel wire, Plastics One) into the dorsal hippocampus (AP: 3.8 mm; ML: +2.2 mm; DV: 2.5 mm; Paxinos and Watson, 2004). Bipolar stimulating electrode (untwisted stainless steel wires, separated by 0.75-1.0 mm at their tips, Plastics One) was implanted in the Nucleus Pontis Oralis (NPO; AP: 7.8 mm; ML: 1.8 mm; DV: 6.0 mm; Paxinos and Watson, 2004). Additionally one electrode was implanted into the cerebellum which served as a reference. Hippocampal θ rhythm was evoked via a 6-s electrical stimulation train (20-160 μA, 0.3-ms pulse duration, 250 Hz) delivered to the NPO at a rate of 0.01 trains/s with a Grass S88 stimulator and PSIU6 stimulus isolation unit (Grass Medical Instruments, Quincy, MA). EEG was recorded at a rate of 1000 Hz using Ponemah (Version 5.2) software and stored for off-line analysis using NeuroScore (Version 3.0). […]
Power in the θ rhythm frequency in the stimulation period during the 30-min baseline period was calculated and the % changes in these measures post treatment were calculated. […]

Row | SMILES | Kp at 1 h [1] | fraction unbound at 6 h, 1 μM [2] | fraction unbound at 6 h, 1 μM [3] | fraction unbound at 6 h, 1 μM [4] | Inference [5] | Exploration time mean ± S.E.M, Familiar object [5] [s] | Exploration time mean ± S.E.M, Novel object [5] [s] | effect of combination treatment on θ power compared with donepezil alone ([6]; FIG. 1) | θ power levels ([6]; anesthetized rat)
1 | COc1ccc(Cc2cc3c(nc2C)CN([C@H]2CCCC[C@@H]2O)C3=O)cc1 [Example 6, 6-(1S,2S-2-Hydroxycyclohexyl)-2-methyl-3-(4-methoxybenzyl)-6,7-dihydropyrrolo[3,4-b]pyridin-5-one] | 0.35 ± 0.08 | 0.115 | 0.124 | 0.123 ± 0.009 | Active | 7.27 ± 1.31 | 15.9 ± 2.47 | – | –
2 | COc1cccc(Cc2cc3c(nc2C)CN([C@H]2CCCC[C@@H]2O)C3=O)c1 [Example 38, 6-(1S,2S-2-Hydroxycyclohexyl)-2-methyl-3-(3-methoxybenzyl)-6,7-dihydropyrrolo[3,4-b]pyridin-5-one] | 0.45 ± 0.13 | 0.116 | 0.192 | 0.084 ± 0.002 | Active | 10.12 ± 2.12 | 19.89 ± 3.32 | significantly higher than the donepezil alone | significant increase
